Where two headings read alike, the source gives them in different places.
Legend:
Fagopyrum esculentum [1] = test: Fagopyrum esculentum growth situation after addition of chelating agent
Experimental: 3) The soil B (3 kg) and the contrast section soil (4.3 kg) which had been passed through a sieve (2 mm) were mixed with urea (N: 69 mg/kg soil), calcium superphosphate (P: 75 mg/kg soil), potassium chloride (K: 72 mg/kg soil), and magnesia lime (Mg: 67 mg/kg soil), and sufficiently stirred. 4) The test soil was filled into a Wagnel pot (1/5000a), and a plant was seeded (3 pits/pot, 3 grains/pit). 5) Four to five days after germination, the plant was thinned out to 3 individuals/pot. 6) Cultivation in a gross chamber (Environmental Condition) Temperature: 25° C.×12 h (8:00-20:00), 20° C.×12 h (20:00-8:00) Humidity: 60% Illumination: light condition (8:00-20:00), dark condition (20:00-8:00) Illuminance: 98001×, 180μ mmol˜m^−2·s^−1 7) Aspersion was performed at 100 ml/pot every day. 8) During a test term, a position of a pot was changed four times. 9) Individuals which were about to fall were induced by a support post. 10) One week before harvesting, a chelating agent at each concentration was added to the soil B. An addition amount was 300 ml/pot, and the chelating agent was carefully added to a surface of the soil so that the chelating agent was not contacted with the plant. On the day before addition of the chelating agent and on the day of addition, aspersion was not performed. […] 12) Repeated cycles in all sections were 3 (3 pots/test section).

[2] = assay type: physicochemical; details: chelating agent 100 mmol·dm^−3, pH 5.8; Soil A; shaken at 20° C. for 6 hours; FIG. 2
Experimental: <Experiment 1. Test of Comparing Lead Dissolving Out Ability of Chelating Agent>
In order to study a kind of a chelating agent to be added to a contaminated soil, the lead dissolving out abilities of 26 types of chelating agents (chelate reagents) were compared (FIG. 2).
2) Chelating agent: Each chelating agent of 100 mmol·dm^−3 and pH 5.8 was prepared.
3) Five grams of 1) the subject soil and 50 ml of 2) the chelating agent were put into to a 100 ml vessel, and shaken (200 times/min) at 20° C. for 6 hours. Repeated cycle was 3.
4) For comparison, a contrast section was prepared, in which desalted water was added instead of the chelating agent in the 3).
5) After shaking, the sample after filtration was centrifuged at 15000 rpm for 5 minutes, and the supernatant liquid was further centrifuged again under the same condition.
6) From the separated supernatant liquid, a lead concentration was measured with an inductively coupled high frequency plasma spectrometry (ICP) device.

Fagopyrum esculentum [3] = details: for Terrestrial lead accumulated amount, fold of EDTA-2Na at the same concentration / Terrestrial lead accumulated amount, fold of contrast section / Leaf dry weight / Stem dry weight / Stem lead concentration / Terrestrial dry weight / Terrestrial part lead accumulation amount / Terrestrial part lead concentration: soil B; for Leaf lead concentration: soil B (lead 13032 mg/kg), added one week before harvesting
Experimental: A lead concentration in a soil or a plant body was analyzed using ICP-AES (inductively coupled plasma-atomic emission spectrometry) regarding a sample obtained by adding nitric acid and degrading this with a microwave.
A cultivating experiment was conducted as follows: in which Fagopyrum esculentum and Brassica juncca were cultivated in a lead-containing soil filled in a Wagnel pot, a chelating agent was further added to the soil, and a difference in a lead accumulating amount depending on the cultivating condition was examined.
In addition, considering influence on plants and environment such as a salt concentration damage, 1, 5, 10 and 20 mmol kg^−1 soil of chemical reagents were adopted as an addition concentration, and 300 ml/pot (soil 3 kg) was provided as an addition amount.
1) Test plant: Fagopyrum esculentum, trade name (Milkyway), Brassica juncea
2) Test soil: Soil B (sampled from an old firing range site, soil lead concentration 13032 mg/kg), contrast sample (mountain sand in Gifu Prefecture of Japan, soil lead concentration 21 mg/kg)

[4] = four days after addition, 1 mmol/kg soil
[5] = four days after addition, 5 mmol/kg soil
[6] = four days after addition, 10 mmol/kg soil
[7] = four days after addition, 20 mmol/kg soil
[8] = two days after addition, 20 mmol/kg soil
[9] = chelating agent 10 mmol/kg soil
[10] = chelating agent 20 mmol/kg soil

**Q.** Which “Discoloration of leaf (number of individuals for which symptom was observed)” value (“Discoloration of leaf” below) (Fagopyrum esculentum [1]; [4]) does the source give for `CC(C(=O)[O-])N(CC(=O)[O-])CC(=O)[O-].[Na+].[Na+].[Na+]` (centres unmarked) [MGDA · 3Na, trisodium methylglycine diacetate] here?
**A.** 3

**Q.** What about the “Leaf drop (number of individuals for which symptom was observed)” value (Fagopyrum esculentum [1]; [4]) of the same compound?
**A.** 1

**Q.** And the “Wilting of leaf (number of individuals for which symptom was observed)” value (shortened to “Wilting of leaf”) (Fagopyrum esculentum [1]; [4])?
**A.** 1

**Q.** What about the “Discoloration of leaf” value (Fagopyrum esculentum [1]; [5]) of the same compound?
**A.** 3

**Q.** And the “Wilting of leaf” value (Fagopyrum esculentum [1]; [5])?
**A.** 1

**Q.** What about the “Discoloration of flower (number of individuals for which symptom was observed)” value (Fagopyrum esculentum [1]; [6]) of the same compound?
**A.** 5

**Q.** And the “Discoloration of leaf” value (Fagopyrum esculentum [1]; [6])?
**A.** 2

**Q.** And the “Leaf drop (number of individuals for which symptom was observed)” value (Fagopyrum esculentum [1]; [6])?
**A.** 2

**Q.** And the “Wilting of leaf” value (Fagopyrum esculentum [1]; [6])?
**A.** 6

**Q.** What about the “Discoloration of flower (number of individuals for which symptom was observed)” value (Fagopyrum esculentum [1]; [7]) of the same compound?
**A.** 9

**Q.** What about the “Discoloration of leaf” value (Fagopyrum esculentum [1]; [7]) of the same compound?
**A.** 9

**Q.** And the “Leaf drop (number of individuals for which symptom was observed)” value (Fagopyrum esculentum [1]; [7])?
**A.** 7

**Q.** What about the “Wilting of leaf” value (Fagopyrum esculentum [1]; [7]) of the same compound?
**A.** 9

**Q.** And the “yellow leaves, spotting and discoloration of leaves, and discoloration of a flower” value (Fagopyrum esculentum [1]; [7])?
**A.** confirmed in all individuals

**Q.** What about the leaf drop (Fagopyrum esculentum [1]; four days after addition, 20 mmol/kg soil, in words) of the same compound?
**A.** observed in almost all individuals

**Q.** What about the discoloration of leaves (Fagopyrum esculentum [1]; [8]) of the same compound?
**A.** discoloration of leaves was observed

**Q.** And the leaf drop (Fagopyrum esculentum [1]; [8])?
**A.** confirmed partially

**Q.** And the “lead dissolving out ability” value [2]?
**A.** high lead dissolving out ability

**Q.** What about the “Terrestrial lead accumulated amount, fold of EDTA-2Na at the same concentration” value (Fagopyrum esculentum [3]; 10 mmol/kg soil) of the same compound?
**A.** 1.6 fold

**Q.** What about the “Terrestrial lead accumulated amount, fold of contrast section” value (Fagopyrum esculentum [3]; 10 mmol/kg soil) of the same compound?
**A.** 3.4 fold

**Q.** What about the “Terrestrial lead accumulated amount, fold of EDTA-2Na at the same concentration” value (Fagopyrum esculentum [3]; 20 mmol/kg soil) of the same compound?
**A.** 1.3 fold

**Q.** And the “Terrestrial lead accumulated amount, fold of contrast section” value (Fagopyrum esculentum [3]; 20 mmol/kg soil)?
**A.** 3.7 fold

**Q.** And the “addition effect on lead concentration in stems” value (Fagopyrum esculentum [3]; 10, 20 mmol/kg soil, contrast section 2043 mg/kg)?
**A.** high addition effect

**Q.** What about the “addition effect on lead concentration in leaves” value (Fagopyrum esculentum [3]; 10, 20 mmol/kg soil, contrast section 7971 mg/kg) of the same compound?
**A.** high addition effect

**Q.** What about the Leaf dry weight (Fagopyrum esculentum [3]; chelating agent 1 mmol/kg soil) of the same compound?
**A.** 0.9422 g/plant

**Q.** And the Stem dry weight (Fagopyrum esculentum [3]; chelating agent 1 mmol/kg soil)?
**A.** 1.9496 g/plant

**Q.** What about the Stem lead concentration (Fagopyrum esculentum [3]; chelating agent 1 mmol/kg soil) of the same compound?
**A.** 2310 mg/kg

**Q.** And the Terrestrial dry weight (Fagopyrum esculentum [3]; chelating agent 1 mmol/kg soil)?
**A.** 2.8918 g/plant

**Q.** What about the “Terrestrial part lead accumulation amount” value (Fagopyrum esculentum [3]; chelating agent 1 mmol/kg soil) of the same compound?
**A.** 0.0130 g/plant

**Q.** What about the “Terrestrial part lead concentration” value (Fagopyrum esculentum [3]; chelating agent 1 mmol/kg soil) of the same compound?
**A.** 4484 mg/kg

**Q.** And the Leaf lead concentration (Fagopyrum esculentum [3]; chelating agent 1 mmol/kg soil)?
**A.** 8981 mg/kg

**Q.** What about the Leaf dry weight (Fagopyrum esculentum [3]; chelating agent 5 mmol/kg soil) of the same compound?
**A.** 0.8863 g/plant

**Q.** What about the Stem dry weight (Fagopyrum esculentum [3]; chelating agent 5 mmol/kg soil) of the same compound?
**A.** 1.8543 g/plant

**Q.** And the Stem lead concentration (Fagopyrum esculentum [3]; chelating agent 5 mmol/kg soil)?
**A.** 2384 mg/kg

**Q.** What about the Terrestrial dry weight (Fagopyrum esculentum [3]; chelating agent 5 mmol/kg soil) of the same compound?
**A.** 2.7406 g/plant

**Q.** What about the “Terrestrial part lead accumulation amount” value (Fagopyrum esculentum [3]; chelating agent 5 mmol/kg soil) of the same compound?
**A.** 0.0156 g/plant

**Q.** What about the “Terrestrial part lead concentration” value (Fagopyrum esculentum [3]; chelating agent 5 mmol/kg soil) of the same compound?
**A.** 5690 mg/kg

**Q.** And the Leaf lead concentration (Fagopyrum esculentum [3]; chelating agent 5 mmol/kg soil)?
**A.** 12607 mg/kg

**Q.** What about the Leaf dry weight (Fagopyrum esculentum [3]; [9]) of the same compound?
**A.** 0.7343 g/plant

**Q.** And the Stem dry weight (Fagopyrum esculentum [3]; [9])?
**A.** 1.5023 g/plant

**Q.** And the Stem lead concentration (Fagopyrum esculentum [3]; [9])?
**A.** 10098 mg/kg

**Q.** What about the Terrestrial dry weight (Fagopyrum esculentum [3]; [9]) of the same compound?
**A.** 2.2366 g/plant

**Q.** And the “Terrestrial part lead accumulation amount” value (Fagopyrum esculentum [3]; [9])?
**A.** 0.0399 g/plant

**Q.** And the “Terrestrial part lead concentration” value (Fagopyrum esculentum [3]; [9])?
**A.** 17858 mg/kg

**Q.** And the Leaf lead concentration (Fagopyrum esculentum [3]; [9])?
**A.** 33735 mg/kg

**Q.** What about the Leaf dry weight (Fagopyrum esculentum [3]; [10]) of the same compound?
**A.** 0.5582 g/plant

**Q.** What about the Stem dry weight (Fagopyrum esculentum [3]; [10]) of the same compound?
**A.** 1.3716 g/plant

**Q.** And the Stem lead concentration (Fagopyrum esculentum [3]; [10])?
**A.** 16437 mg/kg

**Q.** And the Terrestrial dry weight (Fagopyrum esculentum [3]; [10])?
**A.** 1.9298 g/plant

**Q.** What about the “Terrestrial part lead accumulation amount” value (Fagopyrum esculentum [3]; [10]) of the same compound?
**A.** 0.0441 g/plant

**Q.** And the “Terrestrial part lead concentration” value (Fagopyrum esculentum [3]; [10])?
**A.** 22848 mg/kg

**Q.** What about the Leaf lead concentration (Fagopyrum esculentum [3]; [10]) of the same compound?
**A.** 38601 mg/kg

**Q.** What about the “Terrestrial part lead accumulation amount” value (Fagopyrum esculentum [3]; per unit area, calculated, chelating agent 1 mmol/kg soil) of the same compound?
**A.** 1.95 g/m^2

**Q.** And the “Terrestrial part lead accumulation amount” value (Fagopyrum esculentum [3]; per unit area, calculated, chelating agent 5 mmol/kg soil)?
**A.** 2.34 g/m^2

**Q.** And the “Terrestrial part lead accumulation amount” value (Fagopyrum esculentum [3]; per unit area, calculated, chelating agent 10 mmol/kg soil)?
**A.** 5.99 g/m^2

**Q.** What about the “Terrestrial part lead accumulation amount” value (Fagopyrum esculentum [3]; per unit area, calculated, chelating agent 20 mmol/kg soil) of the same compound?
**A.** 6.62 g/m^2
